Assay [1] has as its target T1, human Adenosine A2a receptor (Homo sapiens, UniProt P29274).
T1 construct: expressed in transfected cells; host or cells: CHO cell membranes
The experiment in a line: Adenosine receptor TR-FRET binding assay (CA200645 displacement), A2a. The following applies: 100 nM CA200645, CHO cell membranes, 2 hours at room temperature. (In general: In TR-FRET formats the signal depends on donor and acceptor labels being close together.)
Experimental: (§1) All FRET binding experiments were conducted at room temperature in white 384-well plates, in assay binding buffer containing 1×LabMed (Cisbio, France), 100 μg/mL saponin, 1% DMSO and 0.02% pluronic acid. Binding of the fluorescently labelled Adenosine receptor antagonist XAC (CA200645, FRET acceptor) to terbium-labelled A1, A2a, A2b and A3 adenosine receptors (FRET donors) was detected by time-resolved FRET due to the close proximity of the donor and acceptor in a binding event. To investigate the ability of unlabelled test compounds to bind to Adenosine A1, A2a, A2b and A3 receptors, dose response curves were constructed that determined the ability of a range of concentrations to inhibit the binding of 30 nM CA200645 to the A2b receptor and 100 nM CA200645 to the A1, A2a, and A3 receptor.
(§2) Serial dilution (1:3 dilutions) of test compounds in neat DMSO and transfer of a 400 nL sample of test compound into the assay plate was carried out using the Mosquito (TTP Labtech, UK). The compound samples were incubated for 2 hours at room temperature with a fixed concentration of CA200645 defined for each receptor (see above) and CHO cell membranes containing the human Adenosine A1 (0.5 μg/well), A2a (0.3 μg/well), A2b (1 μg/well) or A3 (1 μg/well) receptor in 40 μL of assay buffer. Total and non-specific binding of CA200645 was determined in the absence and presence of 10 μM XAC, respectively. Following 2 hours incubation, the level of CA200645 binding was detected on a Pherastar FSX (BMG Labtech, Germany) using standard TR-FRET settings. The terbium donor was excited with three laser flashes at a wavelength of 337 nm, and donor and acceptor emission was detected at 620 nm and 665 nm wavelengths, respectively. FRET ratios were obtained by multiplying the acceptor/donor ratio value by 10,000. Specific binding was determined by subtracting the non-specific binding FRET ratio from the total binding FRET ratio. Compound IC50 curves were analysed using GraphPad Prism 7.0 (GraphPad, USA) and Ki affinity values were determined from the obtained IC50 values using the method of Cheng and Prusoff.

For assay [2], the target named is T2, human Adenosine A3 receptor (Homo sapiens, UniProt P0DMS8).
T2 sequence (P0DMS8 1-318): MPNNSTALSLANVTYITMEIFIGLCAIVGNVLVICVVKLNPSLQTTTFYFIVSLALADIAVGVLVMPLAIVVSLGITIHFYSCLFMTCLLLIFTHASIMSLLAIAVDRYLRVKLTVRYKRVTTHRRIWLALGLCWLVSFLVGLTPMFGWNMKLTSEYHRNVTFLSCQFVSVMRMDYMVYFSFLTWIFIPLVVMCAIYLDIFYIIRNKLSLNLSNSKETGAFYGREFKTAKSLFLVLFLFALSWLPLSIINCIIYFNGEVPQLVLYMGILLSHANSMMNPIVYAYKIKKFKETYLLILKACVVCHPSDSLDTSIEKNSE
In words: Adenosine receptor TR-FRET binding assay (CA200645 displacement), A3.

Assay [3] addresses T3, human Adenosine A1 receptor (Homo sapiens, UniProt P30542).
T3 sequence (P30542 1-326): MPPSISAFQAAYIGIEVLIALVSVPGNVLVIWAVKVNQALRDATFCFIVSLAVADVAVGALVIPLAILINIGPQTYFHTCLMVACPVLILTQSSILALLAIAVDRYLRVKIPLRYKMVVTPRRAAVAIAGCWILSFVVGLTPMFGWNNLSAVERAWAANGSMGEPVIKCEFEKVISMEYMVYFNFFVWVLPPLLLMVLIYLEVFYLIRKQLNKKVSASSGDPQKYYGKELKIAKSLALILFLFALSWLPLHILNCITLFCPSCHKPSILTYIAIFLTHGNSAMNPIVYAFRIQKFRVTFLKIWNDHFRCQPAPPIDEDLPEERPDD
The experiment in a line: Adenosine receptor TR-FRET binding assay (CA200645 displacement), A1.
Experimental: as §1, §2

Where a name gives a salt, the structure may show the parent alone. Some results are limits rather than exact numbers.

As usually defined, the Ki is a measure of affinity in units of concentration, obtained from inhibition or displacement. Higher therefore signals lower affinity.

T1 sequence (P29274 whole entry): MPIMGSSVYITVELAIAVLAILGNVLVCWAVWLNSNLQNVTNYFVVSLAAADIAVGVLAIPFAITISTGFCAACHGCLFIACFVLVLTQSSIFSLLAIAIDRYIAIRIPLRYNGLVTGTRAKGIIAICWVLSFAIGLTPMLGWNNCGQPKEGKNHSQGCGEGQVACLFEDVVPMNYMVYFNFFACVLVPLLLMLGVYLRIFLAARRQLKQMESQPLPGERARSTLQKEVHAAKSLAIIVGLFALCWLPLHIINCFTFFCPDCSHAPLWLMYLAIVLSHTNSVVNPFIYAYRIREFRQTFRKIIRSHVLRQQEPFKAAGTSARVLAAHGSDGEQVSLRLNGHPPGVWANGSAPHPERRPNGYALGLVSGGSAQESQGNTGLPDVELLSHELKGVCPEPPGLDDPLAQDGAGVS

Regarding `CC(C)(O)CNC(=O)c1ccn2nc(-c3cccc(C#N)c3)c(-c3ccncn3)c2n1` [Example 13, 2-(3-Cyanophenyl)-N-(2-hydroxy-2-methyl-propyl)-3-pyrimidin-4-yl-pyrazolo[1,5-a]pyrimidine-5-carboxamide], the figures for the Ki in assay [1] and in assay [2] were 67.1 nM and above 1000 nM, respectively.
Consider `CC(C)(O)CNC(=O)c1ccn2nc(-c3cccc(C#N)c3)c(C#N)c2n1` [Example 14, 3-Cyano-2-(3-cyanophenyl)-N-(2-hydroxy-2-methyl-propyl)pyrazolo[1,5-a]pyrimidine-5-carboxamide], for which the Ki is 218 nM in assay [1] and above 1000 nM in assay [2].
As for `CC(C)(C)OC(=O)N1CCC[C@@H]1CNc1ccn2nc(-c3ccco3)c(C#N)c2n1` [Example 37.2, tert-butyl (2R)-2-[[[3-cyano-2-(2-furyl)pyrazolo[1,5-a]pyrimidin-5-yl]amino]methyl]pyrrolidine-1-carboxylate], the Ki is 19.2 nM in assay [1], 103 nM in assay [3] and 1930 nM in assay [2].
For `N#Cc1c(-c2ccco2)nn2ccc(N3CCN(CCF)CC3)nc12` [Example 37.3], the Ki in assay [1] is 22.6 nM; in assay [3], 262 nM; in assay [2], above 1000 nM.
On to `N#Cc1c(-c2ccco2)nn2ccc(N3CCN(CCc4ccccc4)CC3)nc12` [Example 37.6], for which the values for the Ki in assay [1], in assay [3] and in assay [2] were 45.4 nM, 363 nM and above 1000 nM, respectively.
In the case of `N#Cc1c(-c2ccco2)nn2ccc(N3CCN(Cc4ccccn4)CC3)nc12` [Example 37.7], the Ki in assay [1] was 49.3 nM; in assay [3] it was 154 nM; in assay [2] it was 7850 nM.
On to `CN1CCN(c2ccn3nc(-c4ccco4)c(C#N)c3n2)CC1` [Example 37.8], for which the inhibitory constant (Ki) in assay [1] is 62.4 nM; in assay [3], 426 nM; in assay [2] it was above 1000 nM.
As for `C[C@H]1CN(c2ccn3nc(-c4ccco4)c(C#N)c3n2)CCN1C(=O)OC(C)(C)C` [Example 37.11], the Ki in assay [1] was 171 nM; in assay [3], 2170 nM; in assay [2], 2720 nM.
The corresponding values for `NC(=O)c1c(-c2ccco2)nn2ccc(N3CCN(CCF)CC3)nc12` [Example 39, 5-[4-(2-Fluoroethyl)piperazin-1-yl]-2-(2-furyl)pyrazolo[1,5-a]pyrimidine-3-carboxamide] are 38.9 nM, 2580 nM and above 1000 nM.
The corresponding values for `CN(C)C1CN(c2ccn3nc(-c4ccco4)c(C(N)=O)c3n2)C1` [Example 39.1, 5-[3-(Dimethylamino)azetidin-1-yl]-2-(2-furyl)pyrazolo[1,5-a]pyrimidine-3-carboxamide] are 127 nM, 1340 nM and above 1000 nM.
Take `Nc1ccn2nc(-c3ccco3)c(Br)c2n1` [Example 50, 3-Bromo-2-(2-furyl)pyrazolo[1,5-a]pyrimidin-5-amine]: the Ki in assay [1] is 151 nM; in assay [3], 459 nM; in assay [2] it was 3070 nM.
For `Cn1ccnc1CN1CCN(c2ccn3nc(-c4ccco4)c(C#N)c3n2)CC1` [Example 51.2, 2-(2-Furyl)-5-[4-[(1-methylimidazol-2-yl)methyl]piperazin-1-yl]pyrazolo [1,5-a]pyrimidine-3-carbonitrile], the Ki in assay [1] is 54.9 nM; in assay [3], 104 nM; in assay [2] it was above 1000 nM.
For `N#Cc1c(-c2ccco2)nn2ccc(N3CCN(CCO)CC3)nc12` [Example 52, 2-(2-Furyl)-5-[4-(2-hydroxyethyl)piperazin-1-yl]pyrazolo[1,5-a]pyrimidine-3-carbonitrile], the Ki is 114 nM in assay [1], 1150 nM in assay [3] and above 1000 nM in assay [2].
For `COC(=O)/C=C/c1c(-c2ccco2)nn2ccc(NCc3ccccc3)nc12` [Example 54, Methyl (E)-3-[5-(benzylamino)-2-(2-furyl)pyrazolo[1,5-a]pyrimidin-3-yl]prop-2-enoate], the results for the Ki in assay [1], in assay [3] and in assay [2] were 34.7 nM, 18 nM and 68 nM, respectively.
For `O=C(O)/C=C/c1c(-c2ccco2)nn2ccc(NCc3ccccc3)nc12` [Example 54.1, (E)-3-[5-(Benzylamino)-2-(2-furyl)pyrazolo[1,5-a]pyrimidin-3-yl]prop-2-enoic acid], in that order: 102 nM, 856 nM and 6180 nM.
On to `Cc1cccnc1CN1CCN(c2ccn3nc(-c4cccc(C#N)c4)c(C#N)c3n2)CC1` [Example 59, 2-(3-Cyanophenyl)-5-[4-[(3-methyl-2-pyridyl)methyl]piperazin-1-yl]pyrazolo[1,5-a]pyrimidine-3-carbonitrile], for which the inhibitory constant (Ki) in assay [1] is 17.5 nM; in assay [3], 1030 nM; in assay [2] it was 3680 nM.
For `N#Cc1c(-c2cccc(F)c2)nn2ccc(N3CCN(CCF)CC3)nc12` [Example 61, 5-[4-(2-Fluoroethyl)piperazin-1-yl]-2-(3-fluorophenyl)pyrazolo[1,5-a]pyrimidine-3-carbonitrile], in that order: 37.9 nM, 42 nM and 4920 nM.
On to `N#Cc1c(-c2cnco2)nn2ccc(N3CCN(CCF)CC3)nc12` [Example 62, 5-[4-(2-Fluoroethyl)piperazin-1-yl]-2-oxazol-5-yl-pyrazolo[1,5-a]pyrimidine-3-carbonitrile], for which the Ki in assay [1] is 365 nM; in assay [2], above 1000 nM.
Consider `N#Cc1c(-c2ccc(F)cc2)nn2ccc(NCc3ccccc3)nc12` [Example 63, 5-(Benzylamino)-2-(4-fluorophenyl)pyrazolo[1,5-a]pyrimidine-3-carbonitrile], for which the Ki in assay [1] came to 49.1 nM; in assay [3], 24 nM; in assay [2] it was 65 nM.
Take `Cc1cccnc1CN1CCN(c2ccn3nc(-c4cnco4)c(C#N)c3n2)CC1` [Example 65, 5-[4-[(3-Methyl-2-pyridyl)methyl]piperazin-1-yl]-2-oxazol-5-yl-pyrazolo[1,5-a]pyrimidine-3-carbonitrile]: the Ki is 407 nM in assay [1], 2480 nM in assay [3] and above 1000 nM in assay [2].
For the molecule `Fc1cccc(-c2cc3nc(NCCN4Cc5ccccc5C4)ccn3n2)c1` [Example 66.4, 2-(3-Fluorophenyl)-N-(2-isoindolin-2-ylethyl)pyrazolo[1,5-a]pyrimidin-5-amine], the Ki is 706 nM in assay [1], 803 nM in assay [3] and 2900 nM in assay [2].
In the case of `Fc1cccc(-c2nn3ccc(Cl)nc3c2Br)c1` [Example 68, 3-Bromo-5-chloro-2-(3-fluorophenyl)pyrazolo[1,5-a]pyrimidine], the results for the Ki in assay [1] and in assay [2] were 572 nM and above 1000 nM, respectively.
As to `Ic1c(-c2ccco2)nn2ccc(NCc3ccccc3)nc12` [Example 77, N-Benzyl-2-(2-furyl)-3-iodo-pyrazolo[1,5-a]pyrimidin-5-amine], the Ki in assay [1] was 46.4 nM; in assay [3] it was 1430 nM; in assay [2] it was 135 nM.
As for `CN1CCC[C@@H]1CNc1ccn2nc(-c3ccco3)c(C#N)c2n1` [Example 81, 2-(2-Furyl)-5-[[(2R)-1-methylpyrrolidin-2-yl]methylamino]pyrazolo[1,5-a]pyrimidine-3-carbonitrile], the Ki in assay [1] was 202 nM; in assay [3], 1260 nM; in assay [2], above 1000 nM.
The corresponding values for `C[C@@H]1CN(c2ccn3nc(-c4ccco4)c(C#N)c3n2)CCN1` [Example 82, 2-(2-Furyl)-5-[(3R)-3-methylpiperazin-1-yl]pyrazolo[1,5-a]pyrimidine-3-carbonitrile hydrochloride] are 665 nM, 4330 nM and above 1000 nM.
On to `CC(C)(C)OC(=O)N1CCC(c2ccn3nc(-c4ccco4)c(C#N)c3n2)CC1` [Example 83, Tert-butyl 4-[3-cyano-2-(2-furyl)pyrazolo[1,5-a]pyrimidin-5-yl]piperidine-1-carboxylate], for which the Ki was 694 nM in assay [1] and above 1000 nM in assay [2].
With `c1ccc(CNc2ncn3nc(-c4ccco4)cc3n2)cc1` [Example 84, N-Benzyl-7-(2-furyl)pyrazolo[1,5-a][1,3,5]triazin-2-amine], the figures for the Ki in assay [1], in assay [3] and in assay [2] were 160 nM, 389 nM and 231 nM, respectively.
As to `O=C(NCc1ccccc1)c1ccn2nc(-c3ccco3)cc2n1` [Example 85, N-Benzyl-2-(2-furyl)pyrazolo[1,5-a]pyrimidine-5-carboxamide], the Ki was 493 nM in assay [1], 366 nM in assay [3] and above 1000 nM in assay [2].
Turning to `N#Cc1cccc(-c2nn3ccc(NCCN4CCN(c5ccccc5)CC4)nc3c2C#N)c1` [Example 87.1, 2-(3-Cyanophenyl)-5-[2-(4-phenylpiperazin-1-yl)ethylamino]pyrazolo [1,5-a]pyrimidine-3-carbonitrile], the Ki in assay [1] is 16.3 nM; in assay [3] it was 213 nM; in assay [2], above 1000 nM.
